Test results published in patent US9957332B2, “Compositions and methods for treating cocaine-related disorders” (University of Cincinnati, priority 2006, dated 2018).

Tests used:
[1] = Cocaine pharmacokinetics in plasma and brain (GC/MS), absence of mAb; details: for mean metabolite concentration in brain / mean metabolite concentration in plasma: 5 min after cocaine injection
Description: Jugular vein catheterized male Swiss-Webster mice (22-28 g at the start of the studies) are purchased. Mice are housed individually with free access to food and water and kept on a 12 h light/dark cycle.
The antibody (3-5 mg/ml) in phosphate-buffered saline (PBS) or vehicle (PBS) is infused at a rate of approximately 0.35 ml/min for up to two min, depending on the antibody concentration and the body weight of the animal, with the animal held under mild restraint. One hour after completion of the infusion of mAb, cocaine HCl (0.56 mg/kg) plus heparin (400 units/kg) is injected intravenously through the same catheter at a volume of 4.0 ml/kg body weight. At most sampling times, sodium pentobarbital (45 mg/kg, i.p) is administered three minutes prior to sacrificing the animal. For the 0.75 min time point the cocaine is injected into anesthetized mice. At the designated times after the injection of cocaine, anesthetized mice are sacrificed by decapitation and trunk blood (typically 0.8-1.2 ml) is collected in a 1.5 ml polypropylene microcentrifuge tube containing 11.2 μl heparin (1.0 unit/μl) and NaF (16 mg/0.8 ml of blood) to inhibit, respectively, blood coagulation and enzymatic hydrolysis of cocaine. The blood samples are centrifuged at 5,000×g for 3 min, then the plasma (typically 0.4-0.8 ml) is carefully separated from packed red blood cells, placed into sterile 1.5 ml Eppendorf microcentrifuge tubes, rapidly frozen on dry ice and then stored at −80° C. until analysis.
The whole brain is quickly removed from the decapitated mice, surface blood is blotted away, and the brain is placed in a polypropylene tube, rapidly frozen on dry ice and then stored at −80° C. until analysis. For analysis, brains are weighed and cold deionized, distilled water added to produce a total volume of 1 ml, then homogenized and centrifuged at 13,000 rpm for 45 min at 4° C. The resulting supernatants (0.4-0.6 ml) are collected into sterile polypropylene microcentrifuge tubes and an aliquot (0.05-0.40 ml) is processed for cocaine/metabolite analysis by GC/MS and hemoglobin content. Any remaining sample is stored at −80° C.
In order to determine in vivo concentrations of cocaine and its metabolites BE and EME, following the i.v. injection of cocaine, 100-400 μl samples of heparinized/NaF treated plasma and 400 μl samples of brain homogenates obtained from cocaine-treated animals are added to 2 ml of 0.1 M Na phosphate buffer, pH 6.0. This is followed by the addition of 5% trichloroacetic acid at a volume equal to that of the experimental sample (100-400 μl). These mixtures are shaken for 20 minutes and then centrifuged for 15 min at 7000 rpm, all at room temperature, in order to precipitate the denatured protein. The supernatants are collected and adjusted to pH 5.4 with 10 M NaOH. Then to serve as internal standards for establishing the identification of cocaine and its metabolites as well as for normalization of the recovery of cocaine/metabolites from the mouse samples, 50 μl of a sample containing deuterated (D3) cocaine-D3, BE-D3 and EME-D3 (each at 1 μg/ml) is added to all of the experimental and the standard control samples before their undergoing solid-phase extraction/column elution. Duplicate, standard control tubes (2 ml) are also prepared containing; 0.1 M Na phosphate buffer, 50 μl of the internal standards D3 cocaine/BE/EME (1 μg/ml, each), 200 μl of normal mouse plasma and varying amounts of cocaine (1-500 ng) and used to generate the standard cocaine concentration curves. Similarly, standard concentration curves are also generated for BE and EME.

[2] = biological target: anti-cocaine antibody (present antibodies); assay: Competition assays with constant [3H]-cocaine and nonradioactive competitors at the antibody; details: competition with [3H]-cocaine at antibody; read-out: binding inhibition constant (Ki)
Description: (§1) In another embodiment, an antibody binds cocaine or a derivative thereof. […] Other examples of cocaine derivatives include: (−) cocaine; cocaine propyl ester; RTI-128; RTI-66; RTI-160; RTI-192; m-hydroxycocaine; WIN 35,065-2; WIN 35,428; RTI-31; RTI-32; RTI-55; RTI-111; m-hydroxybenzoylecgonine; p-hydroxybenzoylecgonine; RTI-113; tropine; benztropine; 4′,4″-difluoro-3α-diphenylmethoxytropane; hyoscyamine-N-oxide; methylanisotropine; tropisetronmethiodide; anisodine; scopotamine; scopotamine-N-oxide; methylscopolamine; N-butylscopolamine; (−) pseudococaine; (+) cocaine; norcaine; benzoylnorecgonine; (+) pseudococaine; ecgonidine; exo-6-hydroxytropinone; and methylcocaethylene.

[3] = Radioligand binding assay using antibody and [3H]-cocaine; details: [3H]-cocaine radioligand binding; read-out: dissociation constant (Kd) for cocaine
Description: as §1

[4] = 2E2 in vivo pharmacokinetics, blood mAb by ELISA; details: mice
Description: Then at varying times, to obtain blood samples for mAb quantification, the mice are anesthetized using isoflurane and a sterile 27-gauge hypodermic needle or, alternatively, a sterile scalpel blade is used to puncture or make a small cut in a tail vein and 10 μl of blood is collected using a heparinized capillary pipette tip. The blood is immediately placed in a 1.5 ml polypropylene microcentrifuge tube containing 40 μl of 0.1 M sodium citrate/0.1% sodium azide pH 4.75. These samples are then rapidly placed on ice and then stored at 4° C. until use.
Briefly, the conjugate benzoylecgonine-ovalbumin (3 μg/ml, 100 μl/well) in 1 mM EGTA pH 7.4 is adsorbed onto PVC 96-well microtiter plates for 1 hr. The plates are then washed 3 times with, and all wells exposed for 10 min to, 0.5% BSA in TBS (10 mM Tris, 140 mM NaCl and 0.02% NaN3, pH 6.9) in order to block non-specific protein binding. The second layer, 100 μl/well of the blood samples diluted (1:500) into BSA-TBS, is added and the sample is incubated for 2 hr. […] The plates are washed with a Solution A, containing 0.5% BSA, 10 mM sodium phosphate, 145 mM NaCl, 1.5 mM MgCl2, 0.05% triton X-100 and 0.02% NaN3, pH 7.2. Then 50 μl/well of affinity-purified biotinylated goat anti-human IgG diluted 1:500 in Solution A is added and incubated for 1 hr. After washing, 50 μl/well of streptavidin-alkaline phosphatase, diluted (1:200) in Solution A, is added, incubated for 1 hr and removed. Then 50 μl/well of the colorimetric reaction mixture, comprised of the substrate para-nitrophenylphosphate (1 mg/ml) in substrate buffer (50 mM Na2CO3, 50 mM NaHCO3 1 mM MgCl2 at pH 9.8), is added. After 6-8 min the reaction is stopped with 1M sodium hydroxide (50 μl/well). […] The reaction endpoint is measured with an ELISA reader at a wavelength of 405 nm. […]
The program provides Akaike Information Criterion (AIC) and Schwartz Bayesian Criterion (SBC) measures of “goodness of fit” of the data to the one or two compartment pharmacokinetic models that are used. Data are first analyzed according to a single compartment pharmacokinetic model.

[5] = Effect of infused mAbs on plasma and brain cocaine concentrations and pharmacokinetics; type: in vivo, mice
[6] = Effect of 2E2 on cocaine metabolite concentrations in plasma and brain; type: in vivo; details: mice
[7] = mice, 5 min after i.v. cocaine, stoichiometric mAb dose

Compound: COC(=O)[C@H]1[C@@H](OC(=O)c2ccccc2)C[C@@H]2CC[C@H]1N2C [cocaine]
- half-life ([1]; male, Swiss-Webster, mouse, brain, iv, […], t1/2 for entry (input) of cocaine into the brain, mice, absence of 2E2): 2 min
- Vd ([1]; male, Swiss-Webster, mouse, plasma, iv, […]): 6 L/kg
- half-life ([1]; male, Swiss-Webster, mouse, plasma, iv, […], plasma distribution half-life (t1/2α) of cocaine, mice, cocaine HCl […] i.v., absence of 2E2, two-compartment model): 1.9 min
- half-life ([1]; male, Swiss-Webster, mouse, plasma, iv, […], plasma terminal elimination half-life (t1/2β) of cocaine, mice, cocaine HCl […] i.v., absence of 2E2, two-compartment model): 26.1 min
- plasma terminal elimination half-life (t1/2β) of cocaine ([1]; mice, cocaine HCl […] i.v., absence of 2E2, two-compartment model): 26 min
- brain t1/2α of cocaine ([1]; mice, i.v., absence of 2E2, two-compartment model): 2.0 min
- highest measured brain cocaine concentration ([1]; mice, i.v., at 3 min, absence of 2E2): ~1,500 ng/g
- highest plasma cocaine concentration ([1]; mice, i.v., earliest sample time (45 sec), absence of 2E2): ~110 ng/mL
- brain t1/2β of cocaine ([1]; mouse, in vivo, iv): 14.5 min

Compound: COC(=O)[C@@H]1[C@H]2CC[C@@H](C[C@@H]1O)N2C [ecgonine methyl ester]
- Ki [2]: 5.2 µM
- mean metabolite concentration in brain ([1]; mice, absence of 2E2): 267 ng/g
- mean metabolite concentration in plasma ([1]; mice, absence of 2E2): 25 ng/mL

Compound: CN1[C@H]2CC[C@@H]1[C@@H](C(=O)O)[C@@H](O)C2 [ecogonine]
- Ki [2]: 95 µM

Compound: CCOC(=O)[C@@H]1C2CCC(C[C@@H]1OC(=O)c1ccccc1)N2C (stereo partly shown) [cocaethylene]
- Ki [2]: 0.0034 µM

Compound: 2E2: anti-cocaine mAb with human gamma heavy chain (SEQ ID NO: 2) and murine lambda light chain (SEQ ID NO: 1)
- Kd [3]: 0.004 µM
- elimination t1/2 of 2E2 in blood ([4]; 120 mg/kg i.v. infusion, single compartment model): 194 h
- initial blood concentration of mAb (mean±SEM) ([4]; 120 mg/kg i.v., 3 minutes after infusion, n=8): 370 ± 17 µg/mL
- mean blood concentration of 2E2 ([4]; 120 mg/kg i.v., 24 hours after infusion): 422 ± 21 µg/mL
- brain cocaine concentration at highest mAb dose ([5]; mice, 360 mg/kg (3:1 mAb:drug), corrected for residual blood): negligible
- increase in plasma cocaine concentrations ([5]; mice, 2E2 12 mg/kg (1:10 mAb:cocaine), 5 min): 5.1 fold
- decrease in brain cocaine concentrations ([5]; mice, 2E2 24 mg/kg, 5 min): 35%
- peak plasma cocaine concentration, presence vs absence of 2E2 ([5]; mice, 2E2 120 mg/kg): 11.3 fold
- t1/2 of cocaine in plasma in the presence of mAb ([5]; mice, 2E2 120 mg/kg (equimolar), single compartment model): 17.1 min
- peak plasma cocaine concentration in the presence of 2E2 ([5]; mice, 2E2 120 mg/kg, 45 sec after cocaine […] i.v.): ~1,100 ng/ml
- peak brain cocaine concentration in the presence of 2E2 ([5]; mice, 2E2 120 mg/kg, earliest sample time): ~490 ng/g
- elimination t1/2 of cocaine in brain in the presence of 2E2 ([5]; mice, 2E2 120 mg/kg, single compartment model): 3.8 min
- increase in plasma cocaine concentrations ([5]; mice, 2E2 360 mg/kg (3:1 ratio), 5 min): 46.1 fold
- decrease in brain cocaine concentration vs vehicle controls ([5]; mice, 5 min, Table 1): ~5 fold
- increase in plasma cocaine concentration vs vehicle controls ([5]; mice, 5 min, Table 1): 29 fold
- Change from vehicle (brain cocaine concentration) [5, 7]: −4.8-fold
- Change from vehicle (plasma cocaine concentration) [5, 7]: +28.7-fold
- Vdss of cocaine in the presence of mAb ([5]; mice, equimolar dose of 2E2): 0.2 L/kg
- increase in plasma cocaine AUC ([5]; mouse, in vivo): 26 fold
- effect of 2E2 dose on brain EME concentrations [6]: no systematic effect
- effect on brain BE concentrations ([6]; 2E2 doses above 40 mg/kg): concomitant decrease
- reduction in plasma EME concentrations ([6]; highest dose of 2E2): ~2 fold
- increase in plasma BE concentrations ([6]; increasing doses of 2E2, plateau above 40 mg/kg): ~3 fold

Compound: CN1[C@H]2CC[C@@H]1[C@@H](C(=O)O)[C@@H](OC(=O)c1ccccc1)C2 [benzoylecgonine]
- Ki [2]: 0.043 µM
- mean metabolite concentration in brain ([1]; mice, absence of 2E2): 16 ng/g
- mean metabolite concentration in plasma ([1]; mice, absence of 2E2): 7 ng/mL
